Data taken from patent US11821895B2, “Functional cortical organoids, methods of making, and uses thereof” (priority 2017, dated 2023).

Test system: cortical organoids
Assay: Pharmacological perturbation of network activity in cortical organoids, multi-electrode array (MEA) recordings
Type: cell-based, human

SMILES | number of bursts / burst activity | synchronous activity / synchrony indexes | neuronal electrical activity | network bursts (synchrony) | number of network events
NC(CCCP(=O)(O)O)C(=O)O (stereo not drawn) [AP5] | significantly reducing the number of bursts | extinction of synchronous activity | – | – | –
N#Cc1cc2[nH]c(=O)c(=O)[nH]c2cc1[N+](=O)[O-] [CNQX] | significantly reducing the number of bursts | extinction of synchronous activity | – | – | –
NC1=N[C@H](O)[C@H]2[C@H]3O[C@]4(O)O[C@@H]([C@@H](O)[C@@]2(N1)[C@@H]4O)[C@]3(O)CO [TTX, tetrodotoxin] | – | – | blocked | – | –
NCC(CC(=O)O)c1ccc(Cl)cc1 (stereo not drawn) [baclofen] | significantly reducing the number of bursts | extinction of synchronous activity | – | reversibly extinguish the network bursts (synchrony) | completely abolishes synchronized network events
NCc1cc(=O)[nH]o1 [muscimol] | significantly reducing the number of bursts | extinction of synchronous activity | – | reversibly extinguish the network bursts (synchrony) | –
